The source of these data is US9422338B2 (EpoDose LLC, priority 2011, dated 2016).

This assay addresses T1, EPOR (erythropoietin receptor), human recombinant, NSO cells (Homo sapiens, UniProt P19235).
T1 construct: host or cells: NSO cells
T1 sequence (P19235 25-250 limits assumed): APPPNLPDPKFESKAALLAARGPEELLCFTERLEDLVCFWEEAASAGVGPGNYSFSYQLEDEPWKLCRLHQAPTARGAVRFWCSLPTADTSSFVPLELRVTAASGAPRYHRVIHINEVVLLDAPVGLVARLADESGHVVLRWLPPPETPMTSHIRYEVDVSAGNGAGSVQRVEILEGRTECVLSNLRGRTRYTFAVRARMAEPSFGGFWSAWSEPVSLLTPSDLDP
The experiment in a line: EPOR radioligand binding assay ([125I] Erythropoietin competition). Particulars: for Ki (AC-0005-002)/Ki: Ki relative to that of AC-0005-002. How it is done:
IC50 values were determined by a non-linear, least squares regression analysis using MATHIQ™ (computer software for integrating mathematical functions into new or existing software). […] Where presented, the Hill coefficient (nH), defining the slope of the competitive binding curve, was calculated using MATHIQ™.

Where [1] appears, read: Example 1, mimetics varied in N-end, loop and mid sequences.

pIC50, pKi: −log10 of the molar value. Where a SMILES comes first, the peptide text is derived from it. Bridges are numbered along the chain shown (N, C = ends). Roman numbers before positions name the chains, in order. [ ]: non-standard residue; d: D form. ξ: configuration not given here. 1Nal = N[C@@H](Cc1cccc2ccccc12)C(=O)O; ξK = NCCCCC(N)C(=O)O; Ava = NCCCCC(=O)O Where only a bound is given, the exact number is not on record here.

Turning to `CSCC[C@@H]1NC(=O)[C@H](CCCNC(=N)N)NC(=O)C(NC(=O)[C@H](CC(C)C)NC(=O)[C@H](Cc2ccc(O)cc2)NC(=O)[C@H](CC(N)=O)NC(C)=O)CCOCC(C(=O)N[C@@H](CCCCNC(=N)N)C(=O)N2CCC[C@H]2C(=O)NCCCCC(=O)NCCCCC(NC(=O)[C@@H]2CCCN2C(=O)[C@H](CCCCNC(=N)N)NC(=O)C2COCCC(NC(=O)[C@H](CC(C)C)NC(=O)[C@H](Cc3ccc(O)cc3)NC(=O)[C@H](CC(N)=O)NC(C)=O)C(=O)N[C@@H](CCCNC(=N)N)C(=O)N[C@@H](CCSC)C(=O)N3CCC[C@H]3C(=O)N[C@@H](Cc3c[nH]c4ccccc34)C(=O)N[C@@H](C(C)C)C(=O)N2)C(N)=O)NC(=O)[C@H](C(C)C)NC(=O)[C@H](Cc2c[nH]c3ccccc23)NC(=O)[C@@H]2CCCN2C1=O` (stereo partly shown) [AC-0005-051], the pKi under setting [1] was 8.34 and the pKi (Example 3, Cheng-Prusoff) is 8.32. Also, the pIC50 is 8.00 (Example 3) and 8.02 (Example 4, fifth table).

`CC[C@H](C)[C@@H]1NC(=O)[C@@H]2CCCN2C(=O)CNC(=O)[C@H](CCSC)NC(=O)[C@H](Cc2c[nH]cn2)NC(=O)[C@@H](NC(=O)[C@H](C)NC(=O)[C@H](Cc2ccc(O)cc2)NC(=O)[C@H](CC(C)C)NC(C)=O)CSSC[C@@H](C(=O)N[C@@H](CCC(N)=O)C(=O)NCCCCC(=O)NCCCCC(NC(=O)[C@H](CCC(N)=O)NC(=O)[C@@H]2CSSC[C@H](NC(=O)[C@H](C)NC(=O)[C@H](Cc3ccc(O)cc3)NC(=O)[C@H](CC(C)C)NC(C)=O)C(=O)N[C@@H](Cc3c[nH]cn3)C(=O)N[C@@H](CCSC)C(=O)NCC(=O)N3CCC[C@H]3C(=O)N[C@@H]([C@@H](C)CC)C(=O)N[C@@H]([C@@H](C)O)C(=O)N[C@@H](Cc3cccc4ccccc34)C(=O)N[C@@H](C(C)C)C(=O)N2)C(N)=O)NC(=O)[C@H](C(C)C)NC(=O)[C@H](Cc2cccc3ccccc23)NC(=O)[C@H]([C@@H](C)O)NC1=O` (stereo partly shown) [AC-0005-005] (I: Ac-LYACHMGPIT[1Nal]VCQ[ξK]-NH2 / II: Ac-LYACHMGPIT[1Nal]VCQ[Ava]; disulfide I:4-I:13, II:4-II:13; amide I:15-II:C): the pIC50 (Example 4, first table) is < 5.00.

On to `CSCC[C@@H]1NC(=O)[C@H](CCCNC(=N)N)NC(=O)C(NC(=O)[C@H](CC(C)C)NC(=O)[C@H](Cc2ccc(O)cc2)NC(=O)[C@H](CC(N)=O)NC(C)=O)CCOCC(C(=O)N[C@@H](CCCNC(=N)N)C(=O)N2CCC[C@H]2C(=O)NCCCCC(=O)NCCCCC(NC(=O)[C@@H]2CCCN2C(=O)[C@H](CCCNC(=N)N)NC(=O)C2COCCC(NC(=O)[C@H](CC(C)C)NC(=O)[C@H](Cc3ccc(O)cc3)NC(=O)[C@H](CC(N)=O)NC(C)=O)C(=O)N[C@@H](CCCNC(=N)N)C(=O)N[C@@H](CCSC)C(=O)NCC(=O)N[C@@H](Cc3c[nH]c4ccccc34)C(=O)N[C@@H](C(C)C)C(=O)N2)C(N)=O)NC(=O)[C@H](C(C)C)NC(=O)[C@H](Cc2c[nH]c3ccccc23)NC(=O)CNC1=O` (stereo partly shown) [AC-0005-020], for which, under setting [1], the pKi was 7.36. Also, the pIC50 (Example 4, fourth table) is 7.03.

With “I: Ac-GGLYACHMGPIT[1Nal]VCQPQGG[ξK]-NH2 / II: Ac-GGNYLCHMGPIT[1Nal]VCQPQGG[Ava] (disulfide I:6-I:15, II:6-II:15; amide I:21-II:C) [AC-0005-002]”, for the setting “Example 4, first table”, the “Ki (AC-0005-002)/Ki” value was 1.

Regarding `CSCC[C@@H]1NC(=O)[C@H](CCCNC(=N)N)NC(=O)C(NC(=O)[C@H](CC(C)C)NC(=O)[C@H](Cc2ccc(O)cc2)NC(C)=O)CCOCC(C(=O)N[C@@H](CCCCNC(=N)N)C(=O)N2CCC[C@H]2C(=O)NCCCCC(=O)NCCCCC(NC(=O)[C@@H]2CCCN2C(=O)[C@H](CCCCNC(=N)N)NC(=O)C2COCCC(NC(=O)[C@H](CC(C)C)NC(=O)[C@H](Cc3ccc(O)cc3)NC(C)=O)C(=O)N[C@@H](CCCNC(=N)N)C(=O)N[C@@H](CCSC)C(=O)N3CCC[C@H]3C(=O)N[C@@H](Cc3c[nH]c4ccccc34)C(=O)N[C@@H](C(C)C)C(=O)N2)C(N)=O)NC(=O)[C@H](C(C)C)NC(=O)[C@H](Cc2c[nH]c3ccccc23)NC(=O)[C@@H]2CCCN2C1=O` (stereo partly shown) [AC-0005-052], the pKi under setting [1] was 7.94 and the pKi (Example 3, Cheng-Prusoff) is 7.94. In addition, the negative logarithm of the IC50 (pIC50) runs as follows: (Example 3) 7.61; (Example 4, fifth table) 7.62.

With `CSCC[C@@H]1NC(=O)[C@H](CCCNC(=N)N)NC(=O)C(NC(=O)[C@H](CC(C)C)NC(=O)[C@H](Cc2ccc(O)cc2)NC(=O)[C@H](CC(N)=O)NC(C)=O)CCOCC(C(=O)N[C@@H](CCCCN)C(=O)N2CCC[C@H]2C(=O)NCCCCC(=O)NCCCCC(NC(=O)[C@@H]2CCCN2C(=O)[C@H](CCCCN)NC(=O)C2COCCC(NC(=O)[C@H](CC(C)C)NC(=O)[C@H](Cc3ccc(O)cc3)NC(=O)[C@H](CC(N)=O)NC(C)=O)C(=O)N[C@@H](CCCNC(=N)N)C(=O)N[C@@H](CCSC)C(=O)N3CCC[C@H]3C(=O)N[C@@H](Cc3c[nH]c4ccccc34)C(=O)N[C@@H](C(C)C)C(=O)N2)C(N)=O)NC(=O)[C@H](C(C)C)NC(=O)[C@H](Cc2c[nH]c3ccccc23)NC(=O)[C@@H]2CCCN2C1=O` (stereo partly shown) [AC-0005-026], the pKi by setting is: under setting [1], 8.23; (Example 2, mimetics varied in loop, mid and C-end) 8.37; (Example 3, Cheng-Prusoff) 8.19; (Example 4, sixth table) 8.37. In addition, the pIC50 is 7.87 (Example 3); 7.91 (Example 4, fifth table); 7.70 (Example 4, fourth table); 8.05 (Example 4, sixth table).

In the case of `CSCC[C@@H]1NC(=O)[C@H](CCCNC(=N)N)NC(=O)C(NC(=O)[C@H](CC(C)C)NC(=O)[C@H](Cc2ccc(O)cc2)NC(=O)[C@H](CC(N)=O)NC(C)=O)CCOCC(C(=O)N[C@@H](CCCCN)C(=O)N2CCC[C@H]2C(=O)NCCCCC(=O)NCCCCC(NC(=O)[C@@H]2CCCN2C(=O)[C@H](CCCCN)NC(=O)C2COCCC(NC(=O)[C@H](CC(C)C)NC(=O)[C@H](Cc3ccc(O)cc3)NC(=O)[C@H](CC(N)=O)NC(C)=O)C(=O)N[C@@H](CCCNC(=N)N)C(=O)N[C@@H](CCSC)C(=O)N[C@@H](CC(C)C)C(=O)N[C@@H](Cc3c[nH]c4ccccc34)C(=O)N[C@@H](C(C)C)C(=O)N2)C(N)=O)NC(=O)[C@H](C(C)C)NC(=O)[C@H](Cc2c[nH]c3ccccc23)NC(=O)[C@H](CC(C)C)NC1=O` (stereo partly shown) [AC-0005-024], the pKi under setting [1] is 7.47. Besides, the pIC50 (Example 4, fourth table) was 7.14.

With `CSCC[C@@H]1NC(=O)[C@H](CCCNC(=N)N)NC(=O)C(NC(=O)[C@H](CC(C)C)NCOCCCO)CCOCC(C(=O)N[C@@H](CCCCNC(=N)N)C(=O)N2CCC[C@H]2C(=O)NCCCCC(=O)NCCCCC(NC(=O)[C@@H]2CCCN2C(=O)[C@H](CCCCNC(=N)N)NC(=O)C2COCCC(NC(=O)[C@H](CC(C)C)NCOCCCO)C(=O)N[C@@H](CCCNC(=N)N)C(=O)N[C@@H](CCSC)C(=O)N3CCC[C@H]3C(=O)N[C@@H](Cc3c[nH]c4ccccc34)C(=O)N[C@@H](C(C)C)C(=O)N2)C(N)=O)NC(=O)[C@H](C(C)C)NC(=O)[C@H](Cc2c[nH]c3ccccc23)NC(=O)[C@@H]2CCCN2C1=O` (stereo partly shown) [AC-0005-053], the “NH (Hill coefficient)” value (Example 3, slope of competitive binding curve) is 1.86. The “Ki (AC-0005-002)/Ki” value (Example 4, fifth table) is listed as 403. The “Ki/Ki(EPO)” value (Example 4, fifth table, Ki relative to that of EPO) is on record as 120.
